From patent publication US20220267445A1, “Methods and Compositions for Determining Susceptibility to Treatment with Checkpoint Inhibitors” (Novocure GmbH, priority 2021, published 2022) come the findings set out here.

In test [1] the test system is U87MG, LN428 and LN827 GBM cells. In words: TTFields-induced cytosolic micronuclei clusters with cGAS and AIM2 recruitment (immunofluorescence, confocal). The settings on record: ribociclib 4.5 μM. The format is cell-based, human. The procedure: FIG. 1C, FIG. 1D, FIG. 1E, and FIG. 1F show exemplary confocal images with z stack showing immunofluorescent staining for cGAS, AIM2, and LAMINA/C with DAPI counter-staining in LN428 GBM cells that were pretreated with either the vehicle (FIG. 1C, FIG. 1E) or ribociclib (4.5 μM) (FIG. 1D, FIG. 1F) to induce G1 arrest, then non-treated (FIG. 1C, FIG. 1D) or treated with TTFields for 24 hours (FIG. 1E,
FIG. 1G provides an exemplary bar graph showing percentages of cells with large cytosolic micronuclei clusters with cGAS and AIM2 recruitment being dependent on TTFields in the 3 indicated GBM cell lines treated as described with respect to FIG. 1C, FIG. 1D, FIG. 1E, and FIG. 1F;
To address this question, cells were pretreated for 24 hours prior to and during a 24 hour exposure to TTFields with ribociclib, a potent inhibitor of cyclin-dependent kinases 4 and 6, to induce G1 arrest^31 (FIG. 1H).
Cells grown on cover slips were fixed with 4% paraformaldehyde for 30 min at 4° C., incubated overnight at 4° C. with different combinations of primary antibodies (dilution 1:500) against indicated antigens and then for 2 hours at room temperature with appropriate fluorochrome-conjugated secondary antibodies, (dilution 1:500). Labeled cells were counterstained with DAPI (Thermo Fisher, Cat #D1306) at 1 μgm/ml and images captured and analyzed, using a Zeiss 800 inverted confocal microscope. […]

The next test concerns LN428 cells. In words: DNA content analysis by propidium iodide (PI) staining. The format is cell-based, human. The settings on record: ribociclib 4.5 μM, 0 and 24 hours.

In the case of `CN(C)C(=O)c1cc2cnc(Nc3ccc(N4CCNCC4)cn3)nc2n1C1CCCC1` [ribociclib], the “percentage of cells with cGAS and AIM2-recruited micronuclei clusters after TTFields, G1-arrested cells compared to cycling cells” value in test [1] (24 hours prior to and during 24 hour TTFields (200 kHz), all 3 lines) is given as “consistently decreased”. Also, the “cluster formation, ribociclib treatment alone” value in test [1] (no TTFields) is recorded as “did not increase”. Moreover, in the test with LN428 cells, the G1-S arrest entry is reported as “effective G1-S arrest”.
